From PubChem BioAssay (NCI)
“And” between values parts separate entries of the source, which are not always exact repeats. Equal entries are not always repeated.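 Assay format: 96-well plates, 48-hour exposure. Here, GI50 denotes the concentration required for 50% inhibition of growth. TGI marks complete inhibition of growth.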

Assays:
Experiment in all cases: inhibition of tumour cell growth, NCI panel, 48 h
HCT-116 colon = test system: HCT-116 colon
HT29 colon = test system: HT29 colon
MALME-3M melanoma = test system: MALME-3M melanoma
MCF7 breast = test system: MCF7 breast
NCI-H226 lung = test system: NCI-H226 lung
OVCAR-3 ovarian = test system: OVCAR-3 ovarian
OVCAR-4 ovarian = test system: OVCAR-4 ovarian
SF-539 CNS = test system: SF-539 CNS
SNB-19 CNS = test system: SNB-19 CNS
UACC-62 melanoma = test system: UACC-62 melanoma
UO-31 renal = test system: UO-31 renal

| SMILES | TGI (HCT-116 colon) | TGI (HT29 colon) | TGI (MALME-3M melanoma) [µM] | TGI (MCF7 breast) | TGI (NCI-H226 lung) | TGI (OVCAR-3 ovarian) | TGI (OVCAR-4 ovarian) | TGI (SF-539 CNS) | TGI (SNB-19 CNS) | TGI (UACC-62 melanoma) | TGI (UO-31 renal) | GI50 (HCT-116 colon) | GI50 (HT29 colon) | GI50 (MCF7 breast) | GI50 (NCI-H226 lung) | GI50 (OVCAR-3 ovarian) | GI50 (UACC-62 melanoma) | GI50 (UO-31 renal) |
| --- | --- | --- | --- | --- | --- | --- | --- | --- | --- | --- | --- | --- | --- | --- | --- | --- | --- | --- |
| COc1cc(CNCc2cc(OC)c(OC)c(OC)c2)cc(OC)c1OC | > 10 µM | > 10 µM | > 10 | > 10 µM | > 10 µM | > 10 µM | > 10 µM | > 10 µM | > 10 µM | > 10 µM | > 10 µM | – | – | – | – | – | – | – |
| CCOCc1nc2c(OC)cc(-c3nc4ccc(N5CCN(C)CC5)cc4[nH]3)c(OC)c2[nH]1 | > 100 µM | 83 µM | 33.5 | > 100 µM | 81 µM | 70.6 µM | > 100 µM | 36.1 µM | > 100 µM | 34.6 µM | 41.8 µM | – | – | – | – | – | – | – |
| CC1NC(=O)CC(c2ccccc2)N(N=O)C1c1ccccc1 (stereo not given) | > 100 µM | > 100 µM | > 100 | > 100 µM | > 100 µM | > 100 µM | > 87.5 µM | 48.4 µM | > 91.3 µM | > 100 µM | > 100 µM | – | – | – | – | – | – | – |
| Nc1cc2[nH]c(=O)c(=O)[nH]c2cc1N | > 100 µM | > 100 µM | > 100 | > 100 µM | > 100 µM | > 100 µM | > 100 µM | > 100 µM | > 100 µM | > 100 µM | > 100 µM | – | – | – | – | – | – | – |
| COc1cc(C(=O)N(Cc2cccnc2)C(=S)N(Cc2cccnc2)C(=O)c2cc(OC)c(OC)c(OC)c2)cc(OC)c1OC | > 100 µM | > 100 µM | > 100 | 34.9 µM | > 100 µM | > 100 µM | 43.5 µM | > 100 µM | > 100 µM | 73.9 µM | > 100 µM | – | – | – | – | – | – | – |
| Cn1cc(NC(=O)c2cc(NC(=O)CN=C(N)N)cn2C)cc1C(=O)NCCC(=N)N | > 100 µM | > 100 µM | > 100 | > 100 µM | > 100 µM | > 100 µM | > 100 µM | > 100 µM | > 100 µM | > 100 µM | > 100 µM | – | – | – | – | – | – | – |
| C[N+](C)(C)CC1CCCCCCCCCCC1=O (stereo not given) | > 100 µM | > 100 µM | > 100 | > 100 µM | > 100 µM | > 100 µM | > 100 µM | > 100 µM | > 100 µM | > 100 µM | > 100 µM | – | – | – | – | – | – | – |
| O=C1C=C(C2=CC(=O)C(=O)c3ccccc32)c2ccccc2C1=O | 50.1 µM | > 100 µM | > 100 | 48.3 µM | > 100 µM | 20.7 µM | > 100 µM | 82.4 µM | 53.2 µM | > 100 µM | > 100 µM | – | – | – | – | – | – | – |
| CSc1ccc2c(cc1=O)[C@@H](NC(=O)c1ccc(N)cc1)CCc1cc(O)c(O)c(O)c1-2 | > 100 µM | 30.5 µM and 9.94 µM | > 100 | 21.7 µM and > 100 µM | 40.1 µM and 5.49 µM | 40.8 µM and 19.5 µM | 34.1 µM and 54 µM | 27.6 µM | 61 µM and > 100 µM | > 100 µM | 33.8 µM and > 100 µM | 23.8 µM and 11 µM | 13.3 µM and 2.57 µM | 9.14 µM and 3.83 µM | 16.6 µM and 1.75 µM | 17.5 µM and 4.17 µM | 21.5 µM and 7.58 µM | – |
| COc1cc(Cn2c3c(c4cc(O)ccc42)Cc2ccccc2C3=O)cc(OC)c1 | > 100 µM | > 100 µM | > 100 | 78.6 µM | > 100 µM | > 100 µM | > 100 µM | > 100 µM | > 100 µM | > 100 µM | > 100 µM | – | – | – | – | – | – | – |
| Cc1cn(C2CC(N(O)Cc3ccccc3)C(CO[Si](C)(C)C(C)(C)C)O2)c(=O)[nH]c1=O (stereo not given) | 34.8 µM and 29.7 µM | 52.9 µM and 31.5 µM | 31.8 | > 100 µM and 35.1 µM | 35.6 µM and 36.9 µM | 32 µM | 83.6 µM and 31.5 µM | 33.2 µM and 29.5 µM | > 100 µM and 33.2 µM | 26 µM and 30 µM | > 100 µM and 24.9 µM | – | – | – | – | – | – | 32.6 µM and 12.3 µM |
| O=c1cc(-c2ccc(F)cc2)[nH]c2ncc(Cl)cc12 | > 61.3 µM | > 100 µM | > 100 | > 100 µM | > 56 µM | > 70.5 µM | > 100 µM | 97.8 µM | > 100 µM | > 100 µM | > 100 µM | – | – | – | – | – | – | – |
| Cc1cc(S(=O)(=O)N=C2N(Cc3ccccc3)CCN2Cc2ccccc2)c(S)cc1Cl | > 100 µM | > 100 µM | > 100 | > 100 µM | > 100 µM | > 100 µM | > 100 µM | > 100 µM | > 100 µM | > 100 µM | 47.4 µM | – | – | – | – | – | – | – |
| C=CC(CCc1ccc(C(=O)OCC)cc1)c1c(N)nc(N)[nH]c1=O (stereo not given) | > 100 µM | > 100 µM | > 100 | > 100 µM | > 100 µM | > 100 µM | > 100 µM | > 100 µM | > 100 µM | > 100 µM | > 100 µM | – | – | – | – | – | – | – |
| COC[C@@H](C[C@H]1O[C@@](O)([C@H](O)[C@@H]2C[C@H](OC)[C@@H](O)CC/C=C(C)/C=C/[C@@H](O[C@@H]3O[C@@H](C)[C@H](OC)[C@@H](O)[C@@H]3O)[C@H](C)/C=C(C)/C=C(C)/C=C(\C)C(=O)O2)[C@H](C)[C@@H](O)[C@H]1C)O[C@H]1C[C@](C)(O)[C@@H](O[C@H]2C[C@@H](OC)[C@H](O)[C@@H](C)O2)C(C)O1 (stereo not given in full) | > 100 µM | > 100 µM | > 55.5 | > 100 µM | > 100 µM | > 100 µM | > 100 µM | > 100 µM | > 100 µM | > 100 µM | > 100 µM | – | – | – | – | – | – | – |
| O=C1CSC(c2cccc(Oc3ccccc3)c2)N1c1ccc(Cl)cc1 (stereo not given) | 37.9 µM | > 100 µM | 56.7 | 38.5 µM | > 100 µM | > 100 µM | > 100 µM | > 100 µM | > 100 µM | 34.2 µM | > 100 µM | – | – | – | – | – | – | – |
| COc1cc(/C=C(\C#N)C(N)=O)cc(Br)c1O | > 100 µM | > 100 µM | > 100 | > 100 µM | > 100 µM | > 100 µM | > 100 µM | > 100 µM | > 100 µM | > 100 µM | > 100 µM | – | – | – | – | – | 35.9 µM and > 100 µM | – |
